# Experimental data reported in BindingDB's records for patent US20250353833 (Universiteit Antwerpen, 2025).
# Tests used:
# Assay in all cases: Biochemical Evaluation
# Dipeptidyl peptidase 2 = Dipeptidyl peptidase 2 (Homo sapiens, UniProt Q9UHL4)
# Excerpt: (§1) Table 1 and 2: The compounds were biochemically evaluated against a panel consisting of all enzymatically active DASH enzymes (DPP4, DPP8, DPP9, DPP2, FAP) and PREP.
# Prolyl endopeptidase = target: T1, Prolyl endopeptidase (Homo sapiens, UniProt P48147)
# T1 sequence (P48147 whole entry): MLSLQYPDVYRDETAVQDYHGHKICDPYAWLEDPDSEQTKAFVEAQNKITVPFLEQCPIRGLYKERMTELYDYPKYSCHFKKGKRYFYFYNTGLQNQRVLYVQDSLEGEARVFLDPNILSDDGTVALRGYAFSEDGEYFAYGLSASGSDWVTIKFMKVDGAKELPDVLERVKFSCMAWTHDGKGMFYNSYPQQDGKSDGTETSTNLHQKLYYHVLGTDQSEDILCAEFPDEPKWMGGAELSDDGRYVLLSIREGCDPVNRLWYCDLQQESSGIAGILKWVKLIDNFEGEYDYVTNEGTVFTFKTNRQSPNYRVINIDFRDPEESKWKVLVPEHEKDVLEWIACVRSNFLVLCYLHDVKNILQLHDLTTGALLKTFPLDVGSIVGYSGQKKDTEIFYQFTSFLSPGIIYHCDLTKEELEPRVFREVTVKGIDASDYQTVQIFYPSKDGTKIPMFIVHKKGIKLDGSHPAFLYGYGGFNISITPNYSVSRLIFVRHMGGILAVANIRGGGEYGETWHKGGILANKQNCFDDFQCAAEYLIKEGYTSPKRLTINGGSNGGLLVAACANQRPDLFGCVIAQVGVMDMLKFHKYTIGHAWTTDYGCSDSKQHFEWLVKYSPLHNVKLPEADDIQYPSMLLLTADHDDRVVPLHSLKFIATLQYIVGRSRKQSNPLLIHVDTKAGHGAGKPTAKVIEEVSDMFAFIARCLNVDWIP
# Excerpt: as §1
# Prolyl endopeptidase FAP = target: T2, Prolyl endopeptidase FAP (Homo sapiens, UniProt Q12884)
# T2 sequence (Q12884 whole entry): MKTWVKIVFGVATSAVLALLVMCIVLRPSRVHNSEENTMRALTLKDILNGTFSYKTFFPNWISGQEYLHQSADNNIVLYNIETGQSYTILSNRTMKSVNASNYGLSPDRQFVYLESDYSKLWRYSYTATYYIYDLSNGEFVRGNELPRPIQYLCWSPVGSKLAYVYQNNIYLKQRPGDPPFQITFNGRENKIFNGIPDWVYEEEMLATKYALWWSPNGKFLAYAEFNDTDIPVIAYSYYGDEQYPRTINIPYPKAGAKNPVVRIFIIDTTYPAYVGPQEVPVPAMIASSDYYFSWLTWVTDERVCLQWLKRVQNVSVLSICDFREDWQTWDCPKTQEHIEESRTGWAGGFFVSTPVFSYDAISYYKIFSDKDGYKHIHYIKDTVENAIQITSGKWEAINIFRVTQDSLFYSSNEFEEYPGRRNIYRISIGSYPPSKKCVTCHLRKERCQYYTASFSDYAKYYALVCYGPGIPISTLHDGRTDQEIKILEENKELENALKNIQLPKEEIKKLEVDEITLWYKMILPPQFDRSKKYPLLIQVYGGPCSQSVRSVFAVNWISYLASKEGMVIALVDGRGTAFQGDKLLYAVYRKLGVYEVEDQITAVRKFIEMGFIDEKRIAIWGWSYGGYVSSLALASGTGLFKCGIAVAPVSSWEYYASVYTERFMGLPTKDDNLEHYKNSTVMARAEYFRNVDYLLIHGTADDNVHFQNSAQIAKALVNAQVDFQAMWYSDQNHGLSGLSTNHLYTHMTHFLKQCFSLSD
# Excerpt: as §1
smiles,measurement,setting,value
"CC(C)(C)OC(=O)NC12CC3CC(CC(N)(C3)C1)C2 [US20250353833, Compound 4]",IC50,Dipeptidyl peptidase 2,> 5 µM
same,IC50,Prolyl endopeptidase,> 10 µM
same,IC50,Prolyl endopeptidase FAP,> 10 µM
